From article PMC11277489, “Novel Piperazine Derivatives of Vindoline as Anticancer Agents” (International Journal of Molecular Sciences, 2024)

Legend:
SiHa cell line = test system: SiHa cell line; parameters: method as in PMID 32102414; conditions: cited from earlier work
[1] = test system: 60 human tumor cell lines (NCI60); assay: NCI60 one-dose screen (10 μM), whole panel; assay type: cell-based; conditions: 10 μM one-dose, NCI60

SMILES	IC50 (SiHa cell line) [µM]	antiproliferative effect (in words) [1]
CC[C@]12C=CCN3CC[C@@]4(c5ccc(OC)cc5N(C)[C@H]4[C@@](O)(C(=O)OC)[C@@H]1OC(=O)CCCN1CCN(CCCC(=O)O[C@@H]4[C@]5(CC)C=CCN6CC[C@@]7(c8ccc(OC)cc8N(C)[C@H]7[C@@]4(O)C(=O)OC)[C@@H]65)CC1)[C@@H]32 [Compound 4]	2.85	–
CCC12C=CCN3CCC4(c5cc(N)c(OC)cc5N(C)C4C(O)(C(=O)OC)C1OC(C)=O)C32 (centres unmarked) [Compound 11, 10-aminovindoline]	–	a notable antiproliferative effect was not shown
